# Measurements: BindingDB's records for doi:10.1016/j.bmcl.2011.07.110 (Second Military Medical University, 2011)
# Target: Acrosin (Homo sapiens, UniProt P10323)
# Assay: Inhibition of human acrosin using N-alpha-benzoyl-DL-arginine para-nitroanilide-HCl as substrate after 3 hrs by spectrophotometry
# Sequence of Acrosin (P10323 20-42 limits assumed): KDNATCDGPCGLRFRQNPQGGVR
# Sequence of Acrosin (P10323 43-343 limits assumed): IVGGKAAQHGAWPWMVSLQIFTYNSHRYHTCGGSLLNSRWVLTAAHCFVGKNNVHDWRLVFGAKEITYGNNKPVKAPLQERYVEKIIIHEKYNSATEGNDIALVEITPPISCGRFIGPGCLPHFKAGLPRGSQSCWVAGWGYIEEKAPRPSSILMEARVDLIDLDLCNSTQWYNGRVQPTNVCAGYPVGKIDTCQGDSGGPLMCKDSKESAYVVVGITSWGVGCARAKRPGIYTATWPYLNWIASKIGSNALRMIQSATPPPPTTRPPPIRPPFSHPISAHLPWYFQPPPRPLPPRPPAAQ
row,IC50,Structure (SMILES)
1,23 mM,CCOC(=O)c1cc(-c2ccc(NC(C)=O)cc2)[nH]n1
2,14 mM,CCOC(=O)c1cc(-c2ccc(NC(=O)CC)cc2)[nH]n1
3,72 mM,CCCCC(=O)Nc1ccc(-c2cc(C(=O)OCC)n[nH]2)cc1
4,7.9 mM,CCOC(=O)c1cc(-c2ccc(NC(=O)C(F)(F)F)cc2)[nH]n1
5,5.76 mM,CCOC(=O)c1cc(-c2ccc(NC(=O)CCCl)cc2)[nH]n1
6,2.4 mM,CCOC(=O)c1cc(-c2ccc(NC(=O)c3ccc(F)cc3)cc2)[nH]n1
7,3.98 mM,CCOC(=O)c1cc(-c2ccc(NC(=O)c3c(F)cccc3F)cc2)[nH]n1
8,0.44 mM,CCOC(=O)c1cc(-c2ccc(NC(=O)c3ccc(Cl)cc3Cl)cc2)[nH]n1
9,4.8 mM,CCOC(=O)c1cc(-c2ccc(NC(=O)c3c(Cl)cccc3Cl)cc2)n[nH]1
10,0.47 mM,CCOC(=O)c1cc(-c2ccc(NC(=O)Cc3ccccc3)cc2)[nH]n1

# Second part, the molecule before the results:
row,Structure (SMILES),IC50
1,CCCC(=O)Nc1ccc(-c2cc(C(=O)OCC)[nH]n2)cc1,17 mM
2,CCOC(=O)c1cc(-c2ccc(NC(=O)CCC(=O)O)cc2)[nH]n1,9.25 mM
3,CCOC(=O)c1cc(-c2ccc(NC(=O)CCCC(=O)O)cc2)n[nH]1,17.4 mM
4,CCOC(=O)c1cc(-c2ccc(NC(=O)c3ccccc3)cc2)n[nH]1,8 mM
5,CCOC(=O)c1cc(-c2ccc(NC(=O)c3ccccc3Cl)cc2)n[nH]1,0.11 mM
6,CCOC(=O)c1cc(-c2ccc(NC(=O)c3ccc(Cl)cc3)cc2)n[nH]1,3.31 mM
7,CCOC(=O)c1cc(-c2ccc(NC(=O)c3ccccc3Br)cc2)n[nH]1,2.4 mM
8,CCOC(=O)c1cc(-c2ccc(NC(=O)c3ccc(C)cc3)cc2)n[nH]1,34.6 mM
9,CCOC(=O)c1cc(-c2ccc(NC(=O)c3ccc(OC)cc3)cc2)n[nH]1,0.8 mM
10,CCOC(=O)c1cc(-c2ccc(NC(=O)c3ccc(CCl)cc3)cc2)n[nH]1,3.31 mM
11,CCOC(=O)c1cc(-c2ccc(NC(=O)C(CC)c3ccccc3)cc2)n[nH]1 (configuration not stated),3.3 mM
12,CCOC(=O)c1cc(-c2ccc(NS(=O)(=O)c3ccc(C)cc3)cc2)[nH]n1,0.032 mM
